From patent US20120015029A1, “DIRECT COMPRESSION FORMULATION AND PROCESS” (priority 2005, published 2012)

Experiments:
[1] = Water sorption/desorption isotherm (dynamic vapor sorption, DVS-1); settings: 25° C., 85% RH
[2] = Pharmacokinetic drug-drug interaction study vildagliptin 100 mg qd and metformin 1000 mg qd in patients with type 2 diabetes; type: in vivo, human; settings: type 2 diabetes patients, steady state, vildagliptin 100 mg qd FMI tablets alone or with metformin 1000 mg qd, 5 days
Protocol: Subjects are given an end-of-study evaluation on the last day of period 2 (Day 20). For all treatment periods, subjects fasted for a minimum of 10 hours pre-dose to 4 hours post-dose. Subjects are considered to have completed the study when all safety and pharmacokinetic evaluations have been completed.
The pharmacokinetic profiles are illustrated in FIG. 5.

Compound	hygroscopicity [1]	moisture gain [1]	Tmax median [2]
N#C[C@@H]1CCCN1C(=O)CNC12CC3CC(CC(O)(C3)C1)C2 [Crystalline vildagliptin Form A, (S)-1-[(3-hydroxy-1-adamantyl)amino]acetyl-2-cyano-pyrrolidine]	only very slightly hygroscopic	0.9%	–
N#C[C@@H]1CCCN1C(=O)CNC12CC3CC(CC(O)(C3)C1)C2 [vildagliptin amorphous form, (S)-1-[(3-hydroxy-1-adamantyl)amino]acetyl-2-cyano-pyrrolidine]	hygroscopic	4.2%	–
N#C[C@@H]1CCCN1C(=O)CNC12CC3CC(CC(O)(C3)C1)C2 [vildagliptin, (S)-1-[(3-hydroxy-1-adamantyl)amino]acetyl-2-cyano-pyrrolidine]	–	–	1.00 h
